# The NIST ThermoML archive (doi:10.1021/je300252d)
# Numbers after ± are expanded uncertainties.
# Assay: mn = molality of the nth substance listed, in mol/kg
# Conditions: 100 kPa, Liquid, Direct current cell with electrodes
compound,measurement,setting,value
F[B-](F)(F)F.[Na+] [sodium tetrafluoroborate] + CN(C)C=O,molar conductivity,"283.15 K, m1 = 0.0001924",0.006693 ± 7.6e-06 S·m2/mol
same,molar conductivity,"283.15 K, m1 = 0.0003952",0.0066184 ± 6.4e-06 S·m2/mol
same,molar conductivity,"283.15 K, m1 = 0.0006451",0.0065533 ± 5.2e-06 S·m2/mol
same,molar conductivity,"283.15 K, m1 = 0.0008265",0.0065141 ± 4.1e-06 S·m2/mol
same,molar conductivity,"283.15 K, m1 = 0.001295",0.006434 ± 3.5e-06 S·m2/mol
same,molar conductivity,"283.15 K, m1 = 0.002093",0.0063285 ± 2.9e-06 S·m2/mol
same,molar conductivity,"283.15 K, m1 = 0.00309",0.0062291 ± 2.6e-06 S·m2/mol
same,molar conductivity,"283.15 K, m1 = 0.004094",0.0061456 ± 2.3e-06 S·m2/mol
same,molar conductivity,"283.15 K, m1 = 0.005982",0.0060221 ± 2.1e-06 S·m2/mol
same,molar conductivity,"283.15 K, m1 = 0.007983",0.0059166 ± 2e-06 S·m2/mol
same,molar conductivity,"283.15 K, m1 = 0.009964",0.005832 ± 1.9e-06 S·m2/mol
same,molar conductivity,"283.15 K, m1 = 0.01199",0.0057567 ± 1.8e-06 S·m2/mol
same,molar conductivity,"288.15 K, m1 = 0.0001674",0.007209 ± 8e-06 S·m2/mol
same,molar conductivity,"288.15 K, m1 = 0.000442",0.007102 ± 7.2e-06 S·m2/mol
same,molar conductivity,"288.15 K, m1 = 0.000627",0.0070513 ± 5.5e-06 S·m2/mol
same,molar conductivity,"288.15 K, m1 = 0.0007814",0.0070146 ± 4.4e-06 S·m2/mol
same,molar conductivity,"288.15 K, m1 = 0.001324",0.0069135 ± 3.7e-06 S·m2/mol
same,molar conductivity,"288.15 K, m1 = 0.002128",0.0067991 ± 3.1e-06 S·m2/mol
same,molar conductivity,"288.15 K, m1 = 0.003087",0.0066947 ± 2.7e-06 S·m2/mol
same,molar conductivity,"288.15 K, m1 = 0.00408",0.0066044 ± 2.4e-06 S·m2/mol
same,molar conductivity,"288.15 K, m1 = 0.006001",0.0064671 ± 2.2e-06 S·m2/mol
same,molar conductivity,"288.15 K, m1 = 0.007983",0.0063522 ± 2e-06 S·m2/mol
same,molar conductivity,"288.15 K, m1 = 0.009981",0.0062566 ± 1.9e-06 S·m2/mol
same,molar conductivity,"288.15 K, m1 = 0.01195",0.0061747 ± 1.9e-06 S·m2/mol
same,molar conductivity,"293.15 K, m1 = 0.0002336",0.007686 ± 8.6e-06 S·m2/mol
same,molar conductivity,"293.15 K, m1 = 0.0004583",0.0076005 ± 7.2e-06 S·m2/mol
same,molar conductivity,"293.15 K, m1 = 0.0006194",0.0075538 ± 5.7e-06 S·m2/mol
same,molar conductivity,"293.15 K, m1 = 0.0008218",0.0075029 ± 4.7e-06 S·m2/mol
same,molar conductivity,"293.15 K, m1 = 0.001262",0.0074142 ± 4e-06 S·m2/mol
same,molar conductivity,"293.15 K, m1 = 0.001996",0.0072971 ± 3.3e-06 S·m2/mol
same,molar conductivity,"293.15 K, m1 = 0.003085",0.0071656 ± 2.9e-06 S·m2/mol
same,molar conductivity,"293.15 K, m1 = 0.004073",0.0070679 ± 2.5e-06 S·m2/mol
same,molar conductivity,"293.15 K, m1 = 0.005971",0.0069203 ± 2.3e-06 S·m2/mol
same,molar conductivity,"293.15 K, m1 = 0.007974",0.0067931 ± 2.1e-06 S·m2/mol
same,molar conductivity,"293.15 K, m1 = 0.009986",0.0066867 ± 2e-06 S·m2/mol
same,molar conductivity,"293.15 K, m1 = 0.01198",0.0065964 ± 1.9e-06 S·m2/mol
same,molar conductivity,"298.15 K, m1 = 0.0001864",0.008228 ± 9.9e-06 S·m2/mol
same,molar conductivity,"298.15 K, m1 = 0.0003604",0.008147 ± 8.1e-06 S·m2/mol
same,molar conductivity,"298.15 K, m1 = 0.0005971",0.0080676 ± 6.4e-06 S·m2/mol
same,molar conductivity,"298.15 K, m1 = 0.000833",0.0080036 ± 5e-06 S·m2/mol
same,molar conductivity,"298.15 K, m1 = 0.001297",0.0079038 ± 4.1e-06 S·m2/mol
same,molar conductivity,"298.15 K, m1 = 0.002158",0.0077599 ± 3.5e-06 S·m2/mol
same,molar conductivity,"298.15 K, m1 = 0.00307",0.0076432 ± 3e-06 S·m2/mol
same,molar conductivity,"298.15 K, m1 = 0.004131",0.0075305 ± 2.6e-06 S·m2/mol
same,molar conductivity,"298.15 K, m1 = 0.005971",0.0073766 ± 2.4e-06 S·m2/mol
same,molar conductivity,"298.15 K, m1 = 0.007994",0.0072373 ± 2.2e-06 S·m2/mol
same,molar conductivity,"298.15 K, m1 = 0.009949",0.0071242 ± 2.1e-06 S·m2/mol
same,molar conductivity,"298.15 K, m1 = 0.01197",0.0070255 ± 2e-06 S·m2/mol
same,molar conductivity,"303.15 K, m1 = 0.0001663",0.008767 ± 1e-05 S·m2/mol
same,molar conductivity,"303.15 K, m1 = 0.0003918",0.008654 ± 8.9e-06 S·m2/mol
same,molar conductivity,"303.15 K, m1 = 0.0005861",0.0085855 ± 6.9e-06 S·m2/mol
same,molar conductivity,"303.15 K, m1 = 0.0007746",0.008529 ± 5.4e-06 S·m2/mol
same,molar conductivity,"303.15 K, m1 = 0.001279",0.0084093 ± 4.5e-06 S·m2/mol
same,molar conductivity,"303.15 K, m1 = 0.002088",0.0082612 ± 3.7e-06 S·m2/mol
same,molar conductivity,"303.15 K, m1 = 0.003044",0.0081277 ± 3.2e-06 S·m2/mol
same,molar conductivity,"303.15 K, m1 = 0.004105",0.0080061 ± 2.7e-06 S·m2/mol
same,molar conductivity,"303.15 K, m1 = 0.005964",0.0078384 ± 2.5e-06 S·m2/mol
same,molar conductivity,"303.15 K, m1 = 0.007948",0.0076906 ± 2.3e-06 S·m2/mol
same,molar conductivity,"303.15 K, m1 = 0.01001",0.0075615 ± 2.1e-06 S·m2/mol
same,molar conductivity,"303.15 K, m1 = 0.01198",0.0074596 ± 2e-06 S·m2/mol
same,molar conductivity,"308.15 K, m1 = 0.0001761",0.009295 ± 1.2e-05 S·m2/mol
same,molar conductivity,"308.15 K, m1 = 0.0003871",0.009183 ± 9.6e-06 S·m2/mol
same,molar conductivity,"308.15 K, m1 = 0.0005655",0.0091142 ± 7.2e-06 S·m2/mol
same,molar conductivity,"308.15 K, m1 = 0.0008095",0.0090359 ± 5.8e-06 S·m2/mol
same,molar conductivity,"308.15 K, m1 = 0.001266",0.0089201 ± 4.8e-06 S·m2/mol
same,molar conductivity,"308.15 K, m1 = 0.002043",0.0087655 ± 4e-06 S·m2/mol
same,molar conductivity,"308.15 K, m1 = 0.003019",0.0086178 ± 3.4e-06 S·m2/mol
same,molar conductivity,"308.15 K, m1 = 0.004064",0.0084888 ± 2.8e-06 S·m2/mol
same,molar conductivity,"308.15 K, m1 = 0.005984",0.0083031 ± 2.6e-06 S·m2/mol
same,molar conductivity,"308.15 K, m1 = 0.007986",0.0081431 ± 2.3e-06 S·m2/mol
same,molar conductivity,"308.15 K, m1 = 0.01001",0.0080069 ± 2.2e-06 S·m2/mol
same,molar conductivity,"308.15 K, m1 = 0.01196",0.0079009 ± 2.1e-06 S·m2/mol
same,molar conductivity,"313.15 K, m1 = 0.0001113",0.009888 ± 1.2e-05 S·m2/mol
same,molar conductivity,"313.15 K, m1 = 0.0003812",0.00972 ± 1.1e-05 S·m2/mol
same,molar conductivity,"313.15 K, m1 = 0.0006135",0.0096252 ± 7.9e-06 S·m2/mol
same,molar conductivity,"313.15 K, m1 = 0.000783",0.0095672 ± 6.1e-06 S·m2/mol
same,molar conductivity,"313.15 K, m1 = 0.001297",0.0094265 ± 5e-06 S·m2/mol
same,molar conductivity,"313.15 K, m1 = 0.002162",0.0092463 ± 4.2e-06 S·m2/mol
same,molar conductivity,"313.15 K, m1 = 0.003051",0.0091053 ± 3.5e-06 S·m2/mol
same,molar conductivity,"313.15 K, m1 = 0.004099",0.0089684 ± 2.9e-06 S·m2/mol
same,molar conductivity,"313.15 K, m1 = 0.005996",0.0087733 ± 2.7e-06 S·m2/mol
same,molar conductivity,"313.15 K, m1 = 0.008013",0.0086011 ± 2.4e-06 S·m2/mol
same,molar conductivity,"313.15 K, m1 = 0.01004",0.0084556 ± 2.2e-06 S·m2/mol
same,molar conductivity,"313.15 K, m1 = 0.01199",0.0083454 ± 2.1e-06 S·m2/mol
same,molar conductivity,"318.15 K, m1 = 0.0001596",0.0104 ± 1.2e-05 S·m2/mol
same,molar conductivity,"318.15 K, m1 = 0.0004215",0.01024 ± 1.1e-05 S·m2/mol
same,molar conductivity,"318.15 K, m1 = 0.0005697",0.010177 ± 7.9e-06 S·m2/mol
same,molar conductivity,"318.15 K, m1 = 0.0008753",0.010067 ± 6.6e-06 S·m2/mol
same,molar conductivity,"318.15 K, m1 = 0.001339",0.009935 ± 5.4e-06 S·m2/mol
same,molar conductivity,"318.15 K, m1 = 0.002012",0.0097823 ± 4.4e-06 S·m2/mol
same,molar conductivity,"318.15 K, m1 = 0.003095",0.009596 ± 3.7e-06 S·m2/mol
same,molar conductivity,"318.15 K, m1 = 0.004095",0.0094578 ± 3.1e-06 S·m2/mol
same,molar conductivity,"318.15 K, m1 = 0.005994",0.0092497 ± 2.8e-06 S·m2/mol
same,molar conductivity,"318.15 K, m1 = 0.008014",0.0090658 ± 2.5e-06 S·m2/mol
same,molar conductivity,"318.15 K, m1 = 0.009953",0.0089174 ± 2.3e-06 S·m2/mol
same,molar conductivity,"318.15 K, m1 = 0.01195",0.0087989 ± 2.2e-06 S·m2/mol
